# Assays:
# [1] = test system: patients with advanced solid tumors; assay: Phase I dose escalation: MTD and DLT of flavopiridol with FOLFIRI; type: in vivo, human
# [2] = test system: patients with refractory colorectal cancer; conditions: combined with irinotecan at 125 mg/m^2 given weekly for 4 of every 6 weeks; cited from earlier work
# melanoma = conditions: single agent; 16 patients; cited from earlier work
# [3] = Flavopiridol plasma pharmacokinetics; type: in vivo; conditions: human, intravenous
# [4] = in combination with flavopiridol
# [5] = split-dose schedule (MTD2): 30-min bolus followed by 4-h infusion
compound,measurement,setting,value
"O=c1[nH]cc(F)c(=O)[nH]1 [5FU, fluorouracil]","established MTD (FOLFIRI component), bolus",[1]; [4],400 mg/m^2
same,"established MTD (FOLFIRI component), over 48 h",[1]; [4],"2,400 mg/m^2"
"Nc1nc2c(c(=O)[nH]1)N(C=O)C(CNc1ccc(C(=O)N[C@@H](CCC(=O)O)C(=O)O)cc1)CN2 (some centres unmarked) [LV, leucovorin]",established MTD (FOLFIRI component),[1]; [4],400 mg/m^2
"CN1CC[C@H](c2c(O)cc(O)c3c(=O)cc(-c4ccccc4Cl)oc23)[C@H](O)C1 [flavopiridol, Flavopiridol]",MTD of flavopiridol,[2],50 mg/m^2
same,objective responses,melanoma,no objective responses
same,MTD with FOLFIRI,"[1]; flavopiridol over 1 h (bolus schedule, cohort 9, MTD1), every 2 weeks",80 mg/m^2
same,"MTD with FOLFIRI, bolus part",[1]; [5],35 mg/m^2
same,"MTD with FOLFIRI, part over 4 h",[1]; [5],35 mg/m^2
same,Cmax,"[3]; Cmax, at MTDs, patients who experienced DLT",3.48 µM
same,Cmax,"[3]; Mean Cmax, cycle 1, cohort 9: flavopiridol 80 mg/m^2, irinotecan 180 mg/m^2, n 6",2.69 µM
CCc1c2c(nc3ccc(OC(=O)N4CCC(N5CCCCC5)CC4)cc13)-c1cc3c(c(=O)n1C2)COC(=O)[C@]3(O)CC [irinotecan],established MTD (FOLFIRI component),[1]; [4],180 mg/m^2

# — publication PMC2957673 (Cancer chemotherapy and pharmacology, 2010)
